# pIC50: −log10 of the molar value. Like-named read-outs stand apart in the source and are kept apart here.
# Columns and labels:
# [1] = tested on: MYC protein expression in MCF-7 breast cancer cells; assay: Western blotting of MYC protein level in MCF-7 cells; type: cell-based, human; conditions: Homo sapiens, MCF7; western blotting, MCF-7 cells, 0.5, 1, 2, and 4 μM, 24 hours; read-out: MYC Inhibition
# Experimental: MCF-7 cells were incubated with each compound at four concentrations (0.5, 1, 2, and 4 μM) for 24 hours, and the MYC protein levels were measured (FIG. 3A and FIGS. 12 A to 12 F).
# Cells were incubated at 37° C. with 5% CO2.
# The gels were cut into strips that contained the proteins of interest and transferred to nitrocellulose membrane (I323002, Invitrogen) using an iBlot 2 Dry Transfer Device (Invitrogen). Immunoblotting was carried out according to standard procedures using the ECL detection method. The membrane was hybridized with the following antibodies: monoclonal anti-MYC (1:1000 dilution; rabbit, Cell Signaling Technology), monoclonal anti-GAPDH (1:2000 dilution; rabbit, Cell Signaling Technology).
# NCI-60 cancer cell lines = assay: NCI-60 cancer cell line drug screen (GI50, MGM); type: cell-based, human; conditions: Homo sapiens; for mean GI50 across NCI-60 panel (MGM): average of GI50 values across the entire panel of NCI-60 cancer cell lines
# Experimental: Cancer cells were incubated with the test compounds at five concentrations ranging from 100 μM to 10 nM for 48 h. […] The approximate average of GI50 values across the entire panel of NCI-60 cancer cell lines for each compound was recorded as the MGM value.
# human topoisomerase I = target: T1, human topoisomerase I (Homo sapiens, UniProt P11387); conditions: relative topoisomerase I inhibition levels, previously determined, six levels (0 - 5, +++++ = 5); cited from earlier work
# T1 sequence (P11387 1-765): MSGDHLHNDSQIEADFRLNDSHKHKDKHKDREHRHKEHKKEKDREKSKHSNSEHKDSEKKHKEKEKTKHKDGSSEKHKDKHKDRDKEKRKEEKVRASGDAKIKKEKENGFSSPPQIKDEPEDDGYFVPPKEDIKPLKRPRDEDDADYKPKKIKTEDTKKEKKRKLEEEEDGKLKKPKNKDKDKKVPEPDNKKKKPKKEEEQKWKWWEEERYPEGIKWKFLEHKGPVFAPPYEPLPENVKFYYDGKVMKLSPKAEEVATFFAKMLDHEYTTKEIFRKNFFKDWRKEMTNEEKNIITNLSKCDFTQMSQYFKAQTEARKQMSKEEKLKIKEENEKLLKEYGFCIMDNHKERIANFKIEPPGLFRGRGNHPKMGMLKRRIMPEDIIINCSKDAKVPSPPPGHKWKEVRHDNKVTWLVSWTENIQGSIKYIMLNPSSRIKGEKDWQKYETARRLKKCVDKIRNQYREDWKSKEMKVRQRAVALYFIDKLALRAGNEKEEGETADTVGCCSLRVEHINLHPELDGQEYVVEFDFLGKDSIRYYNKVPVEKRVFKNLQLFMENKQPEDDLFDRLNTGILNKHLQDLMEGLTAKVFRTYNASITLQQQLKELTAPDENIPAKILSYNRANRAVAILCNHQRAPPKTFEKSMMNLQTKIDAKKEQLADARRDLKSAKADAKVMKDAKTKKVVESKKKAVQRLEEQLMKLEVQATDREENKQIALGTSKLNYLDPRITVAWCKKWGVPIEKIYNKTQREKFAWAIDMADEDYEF
# [2] = A549, Non-Small Cell Lung Cancer, A549/ATCC, read-out: Antiproliferative Activities [GI50 (μM)]
# [3] = CCRF-CEM, Leukemia, CCRF-CEM, read-out: Antiproliferative Activities [GI50 (μM)]
# [4] = COLO 205, Colon Cancer, COLO 205, read-out: Antiproliferative Activities [GI50 (μM)]
# [5] = EKVX, Non-Small Cell Lung Cancer, EKVX, read-out: Antiproliferative Activities [GI50 (μM)]
# [6] = HCT-116, Colon Cancer, HCT-116, read-out: Antiproliferative Activities [GI50 (μM)]
# [7] = HL-60, Leukemia, HL-60(TB), read-out: Antiproliferative Activities [GI50 (μM)]
# [8] = HOP-62, Non-Small Cell Lung Cancer, HOP-62, read-out: Antiproliferative Activities [GI50 (μM)]
# [9] = HOP-92, Non-Small Cell Lung Cancer, HOP-92, read-out: Antiproliferative Activities [GI50 (μM)]
# [10] = K562, Leukemia, K-562, read-out: Antiproliferative Activities [GI50 (μM)]
# [11] = MOLT-4, Leukemia, MOLT-4, read-out: Antiproliferative Activities [GI50 (μM)]
# [12] = NCI-H23, Non-Small Cell Lung Cancer, NCI-H23, read-out: Antiproliferative Activities [GI50 (μM)]
# [13] = NCI-H226, Non-Small Cell Lung Cancer, NCI-H226, read-out: Antiproliferative Activities [GI50 (μM)]
# [14] = NCI-H322M, Non-Small Cell Lung Cancer, NCI-H322M, read-out: Antiproliferative Activities [GI50 (μM)]
# [15] = NCI-H460, Non-Small Cell Lung Cancer, NCI-H460, read-out: Antiproliferative Activities [GI50 (μM)]
# [16] = NCI-H522, Non-Small Cell Lung Cancer, NCI-H522, read-out: Antiproliferative Activities [GI50 (μM)]
# [17] = RPMI-8226, Leukemia, RPMI-8226, read-out: Antiproliferative Activities [GI50 (μM)]
# [18] = HCC 2998, Colon Cancer, HCC-2998, read-out: Antiproliferative Activities [GI50 (μM)]
# [19] = Leukemia, SR, read-out: Antiproliferative Activities [GI50 (μM)]
SMILES,minimal effective concentration [1] [µM],GI50 (NCI-60 cancer cell lines; [2]) [µM],GI50 (NCI-60 cancer cell lines; [3]) [µM],GI50 (NCI-60 cancer cell lines; [4]) [µM],GI50 (NCI-60 cancer cell lines; [5]) [µM],GI50 (NCI-60 cancer cell lines; [6]) [µM],GI50 (NCI-60 cancer cell lines; [7]) [µM],GI50 (NCI-60 cancer cell lines; [8]) [µM],GI50 (NCI-60 cancer cell lines; [9]) [µM],GI50 (NCI-60 cancer cell lines; [10]) [µM],GI50 (NCI-60 cancer cell lines; [11]) [µM],GI50 (NCI-60 cancer cell lines; [12]) [µM],GI50 (NCI-60 cancer cell lines; [13]) [µM],GI50 (NCI-60 cancer cell lines; [14]) [µM],GI50 (NCI-60 cancer cell lines; [15]) [µM],GI50 (NCI-60 cancer cell lines; [16]) [µM],GI50 (NCI-60 cancer cell lines; [17]) [µM],Top1 Inhibiton (human topoisomerase I),GI50 (NCI-60 cancer cell lines; [18]) [µM],mean GI50 across NCI-60 panel (MGM) (NCI-60 cancer cell lines) [nM],also measured
COc1cc2c3c(n(CCCNCCN)c(=O)c2cc1OC)-c1cc2c(cc1C3=O)OCO2 [Compound 46],4,0.74,< 0.01,0.08,2.06,0.13,0.25,0.05,3.27,0.28,< 0.01,0.05,0.65,0.53,0.43,0.4,0.48,"+++ (strong inhibition, +++, MYC expression inhibited at 0.5 to 1.0 μM)",,,
COc1cc2c3c(n(CCCN)c(=O)c2cc1OC)-c1cc2c(cc1C3=O)OCO2 [Compound 45],2,0.11,< 0.01,0.3,,0.12,0.22,0.06,1.65,0.09,< 0.01,0.13,1.39,,0.02,0.07,< 0.01,"+++ (strong inhibition, +++, MYC expression inhibited at 0.5 to 1.0 μM)",0.1,180,GI50 (NCI-60 cancer cell lines; [19]): < 0.01 µM
COc1cnc2c(c1)C(=O)c1c-2n(CCCN2CCNCC2)c(=O)c2cc(Cl)ccc12 [Compound 1],,,,,,,,,,,,,,,,,,"+ (weak inhibition, +, MYC expression inhibited at 4.0 μM)",,,
COc1cc2c3c(n(CCCN4CCC(N)CC4)c(=O)c2cc1OC)-c1cc2c(cc1C3=O)OCO2 [Compound 48],4,0.65,0.3,1.14,1.31,0.12,> 50,0.42,,1.59,0.42,0.71,0.66,1.05,0.24,13.1,0.2,"+ (weak inhibition, +, MYC expression inhibited at 4.0 μM)",0.14,1020,
CCNCCCn1c2c(c3ccc(F)cc3c1=O)C(=O)c1cc(OC)cnc1-2 [Compound 7],,,,,,,,,,,,,,,,,,"++ (medium inhibition, ++, MYC expression inhibited at 2.0 μM, or no clear dose-dependent MYC inhibition)",,,
COc1cc2c3c(n(CCCNCCO)c(=O)c2cc1OC)-c1cc2c(cc1C3=O)OCO2 [Compound 44],0.5 to 1,,,,,,,,,,,,,,,,,,,,"GI50 (NCI-60 cancer cell lines; A549, read-out: Antiproliferative Activities [GI50 (μM)]): 0.03 µM; GI50 (NCI-60 cancer cell lines; CCRF-CEM, read-out: Antiproliferative Activities [GI50 (μM)]): < 0.01 µM; GI50 (NCI-60 cancer cell lines; COLO 205, read-out: Antiproliferative Activities [GI50 (μM)]): 0.38 µM; GI50 (NCI-60 cancer cell lines; EKVX, read-out: Antiproliferative Activities [GI50 (μM)]): 0.26 µM; GI50 (NCI-60 cancer cell lines; HCT-116, read-out: Antiproliferative Activities [GI50 (μM)]): 0.07 µM; GI50 (NCI-60 cancer cell lines; HL-60, read-out: Antiproliferative Activities [GI50 (μM)]): < 0.01 µM; GI50 (NCI-60 cancer cell lines; HOP-62, read-out: Antiproliferative Activities [GI50 (μM)]): 0.01 µM; GI50 (NCI-60 cancer cell lines; HOP-92, read-out: Antiproliferative Activities [GI50 (μM)]): 0.83 µM; GI50 (NCI-60 cancer cell lines; K562, read-out: Antiproliferative Activities [GI50 (μM)]): 0.02 µM; GI50 (NCI-60 cancer cell lines; MOLT-4, read-out: Antiproliferative Activities [GI50 (μM)]): < 0.01 µM; GI50 (NCI-60 cancer cell lines; NCI-H23, read-out: Antiproliferative Activities [GI50 (μM)]): < 0.01 µM; GI50 (NCI-60 cancer cell lines; NCI-H226, read-out: Antiproliferative Activities [GI50 (μM)]): 0.21 µM; GI50 (NCI-60 cancer cell lines; NCI-H322M, read-out: Antiproliferative Activities [GI50 (μM)]): 0.05 µM; GI50 (NCI-60 cancer cell lines; NCI-H460, read-out: Antiproliferative Activities [GI50 (μM)]): < 0.01 µM; GI50 (NCI-60 cancer cell lines; NCI-H522, read-out: Antiproliferative Activities [GI50 (μM)]): < 0.01 µM; GI50 (NCI-60 cancer cell lines; RPMI-8226, read-out: Antiproliferative Activities [GI50 (μM)]): 0.01 µM; GI50 (NCI-60 cancer cell lines; read-out: Antiproliferative Activities [GI50 (μM)]): < 0.01 µM; pIC50 (NCI-60 cancer cell lines; read-out: MGM): 7.22"
COc1cnc2c(c1)C(=O)c1c-2n(CCCN2CCNCC2)c(=O)c2cc(F)ccc12 [Compound 8],,,,,,,,,,,,,,,,,,"+ (weak inhibition, +, MYC expression inhibited at 4.0 μM)",,,
COc1cc2c(=O)n(CCCN3CCOCC3)c3c(c2cc1OCCCN1CCCC1)C(=O)c1cc2c(cc1-3)OCO2 [Compound 55],4,0.11,< 0.01,0.31,,0.16,0.3,0.19,1.66,0.19,< 0.01,0.71,2.12,1,0.03,0.04,0.25,"++ (medium inhibition, ++, MYC expression inhibited at 2.0 μM, or no clear dose-dependent MYC inhibition)",3.32,340,GI50 (NCI-60 cancer cell lines; [19]): < 0.01 µM
COc1cnc2c(c1)C(=O)c1c-2n(CCCN2CCN(C)CC2)c(=O)c2cc(Cl)ccc12 [Compound 4],,,,,,,,,,,,,,,,,,"+ (weak inhibition, +, MYC expression inhibited at 4.0 μM)",,,
COc1cc2c3c(n(CCCNC4=NCCS4)c(=O)c2cc1OC)-c1cc2c(cc1C3=O)OCO2 [Compound 50],2,< 0.01,< 0.01,< 0.01,2.57,< 0.01,0.29,< 0.01,< 0.01,< 0.01,< 0.01,0.02,0.05,3.18,< 0.01,0.02,0.02,,< 0.01,40,GI50 (NCI-60 cancer cell lines; [19]): < 0.01 µM
COc1cc2c3c(n(CCCN4CCN(C)CC4)c(=O)c2cc1OC)-c1cc2c(cc1C3=O)OCO2 [Compound 49],4,18.7,2.44,10.3,17.7,1.49,19.5,18,19.8,6.49,< 0.01,11.9,13.9,15.6,5.81,15.4,2.39,"+ (weak inhibition, +, MYC expression inhibited at 4.0 μM)",< 0.01,12000,
